Data on 1 compound can be found in US20090054403A1, “Treatment of Post-Traumatic Stress Disorder” (priority 2007, published 2009).

Entries after “also recorded” stand apart in the source; their conditions may differ. A value given as a limit tells only on which side of the number the result lay.

The test system of data set [1] is dopamine/norepinephrine ratio. Description: Dose response of tissue dopamine/norepinephrine ratio 6 hours after a single oral dose. The class given is in vivo, Sprague-Dawley rats.
In a further data set the target is T1, neutral endopeptidase (Homo sapiens, UniProt P08473).
T1 construct: PanLabs Inc (assay provider)
Description: Selected enzyme assay. The class given is biochemical. Here is the method: (§1) The activity of nepicastat at twelve selected enzymes and receptors was determined using established assays. Details of individual receptor radioligand binding assays can be found in Wong et al (1993). Binding data were analyzed by iterative curve-fitting to a four parameter logistic equation. Ki values were calculated from IC50 values using the Cheng-Prusoff equation. Enzyme inhibitory activity was expressed as IC50 (concentration required to produce 50% inhibition of enzyme activity). Male SHRs (15-16 weeks old, Charles River, Wilmington, Mass., USA) were used in the study. On the day of the study, animals were weighed and randomly assigned to be dosed with either vehicle (control) or the appropriate dose of nepicastat (3, 10, 30 or 100 mg.kg^−1, po) or (R)-5-Aminomethyl-1-(5,7-difluoro-1,2,3,4-tetrahydronaphth-2-yl)-2,3-dihydro-2-thioxo-1H-imidazole hydrochloride (30 mg.kg^−1, po) three consecutive times, twelve hours apart. At six hours after the third dose, the rats were anaesthetized with halothane, decapitated and tissues (cerebral cortex, mesenteric artery and left ventricle) were rapidly harvested, weighed, placed in iced perchloric acid (0.4 M), frozen in liquid nitrogen and stored at −70° C. until subsequent analysis. To quantify noradrenaline and dopamine concentrations, tissues were homogenized by brief sonication and centrifuged at 13,000 rpm for 30 minutes at 4° C. The supernatant, spiked with 3,4-dihydroxybenzylamine (internal standard), was assayed for noradrenaline and dopamine by HPLC using electrochemical detection.
(§2) In vitro assay of selected enzymes and neurotransmitter receptors. The activity of 2a at eleven different enzymes was determined using established assays (PanLabs Inc, Foster City, Calif.). The affinity of 2a for thirteen selected receptors was determined by radioligand binding assays using standard filtration techniques and membrane preparations. Binding data were analyzed by iterative curve fitting to a four parameter logistic equation. Ki values were calculated using the Cheng-Prusoff equation.

The next data set deals with nitric oxide synthase. Description: Selected enzyme assay. It counts as biochemical. The method, then:
as §1, §2

For another data set, the target named is protein kinase C. Description: Selected enzyme assay. The class given is biochemical. To be noted: b560 prints protein kinase (non-selective). Here is the method: as §1, §2
Another data set has as its target T2, tyrosine hydroxylase (Homo sapiens, UniProt P07101).
T2 construct: PanLabs Inc (assay provider)
Description: Selected enzyme assay. It counts as biochemical. Here is the method: as §1, §2

The target in the next data set is T3, HMG-CoA reductase (Homo sapiens, UniProt P04035).
T3 construct: PanLabs Inc (assay provider)
Description: Selected enzyme assay. The class given is biochemical. Here is the method:
as §1, §2

The next data set has as its target acetyl CoA synthetase. Description: Selected enzyme assay. The class given is biochemical. Here is the method:
as §1, §2

Data set [2] has as its target acyl CoA-cholesterol acyl transferase. Description: Selected enzyme assay. The class given is biochemical. Here is the method: as §1, §2
Data set [3] addresses Ca2+/calmodulin protein kinase II. Description: Selected enzyme assay. The class given is biochemical. Here is the method:
as §1, §2

A further data set has as its target T4, cyclooxygenase-I (Homo sapiens, UniProt P23219).
T4 construct: PanLabs Inc (assay provider)
Description: Selected enzyme assay. The class given is biochemical. The method, then:
as §1, §2

The test system of data set [4] is cardiovascular parameters. Description: Cardiovascular effects of acute intravenous dosing in normal anesthetized dogs. It counts as in vivo. As to conditions: 1-10 mg/kg i.v., up to five hours.
Data set [5] concerns sympathetically-evoked functional responses. Description: Sympathetically-evoked functional responses in anesthetized dogs. It counts as in vivo, beagle dogs.
The subject of the next data set is mice. Description: Acute toxicity study, single oral doses. It counts as in vivo. As to conditions: single oral doses of 250, 1000, or 2500 mg/kg. The method, then:
Dose selection was based on an acute toxicity study in which mice were administered single oral doses of 250, 1000, or 2500 mg/kg of Nepicastat.

Data set [6] concerns mean arterial pressure and heart rate. Description: Heart rate and mean arterial pressure in restrained SHR with SCH-23390 pretreatment. The class given is in vivo, spontaneous hypertensive rats. The text has this:
Male, spontaneous hypertensive rats (280-345 g; Charles River Labs, Kingston, N.Y.) were fasted overnight then anesthetized with ether. A femoral artery and femoral vein were cannulated with PE50 tubing for recording of blood pressure and administration of compounds, respectively. Animals were then placed in MAYO restrainers and their feet loosely taped to the restrainer. Heparinized saline (50 units sodium heparin/ml) was used to maintain patency of each cannula throughout the experiment. The following parameters were continuously recorded using Modular Instruments MI^2 BioReport™ software installed on an IBM personal computer: mean arterial pressure (MAP), heart rate (HR), and the change from baseline for each parameter at specified time points in the experiment.
All compounds were dissolved on the day of use. nepicastat was dissolved in deionized water (vehicle) to a free base concentration of 1 mg/ml. Oral dosing volume for nepicastat or vehicle was 10 ml/kg. SCH-23390 was dissolved in saline (vehicle) to a free base concentration of 0.2 mg/ml. […] or saline were administered intravenously as a bolus in a volume of 1.0 ml/kg followed by 0.2 ml flush of isotonic saline.
Following surgical preparation, each animal was allowed a minimum one hour recovery period. Animals were randomly assigned to four treatment groups: vehicle (iv)/vehicle (po); vehicle (iv)/nepicastat (po); SCH-23390 (iv)/vehicle (po); or SCH-23390 (iv)/nepicastat (po). Once animals were stabilized (minimum one hour), baseline blood pressure and heart rate was determined by taking an average of each parameter over a 15 min period of time. Once baseline blood pressure and heart rate were established, animals were dosed intravenously with either SCH-23390 (200 μg/kg) or vehicle (saline, 1 ml/kg). Fifteen minutes later, animals were orally dosed with either nepicastat (10 mg/kg) or vehicle (deionized water, 10 ml/kg).
Recorded parameters were measured 15 min prior to intravenous dosing to establish baseline blood pressure and heart rate. Recorded parameters were then measured at 5, 10, and 15 min following intravenous administration of SCH-23390 or vehicle. Following oral administration of nepicastat or vehicle, recorded parameters were measured at 15, 30, 60, 90, 120, 150, 180, 210, and 240 min.
At the end of the experiment, each animal was anesthetized with halothane and euthanized via decapitation. The cortex, left ventricle (apex), and mesenteric artery were dissected out, weighed, and fixed in 0.4 M perchloric acid. […] Blood pressure and heart rate were analyzed separately. The change from baseline for blood pressure and heart rate were analyzed by an analysis of variance (ANOVA) with effects for treatment, time, and their interaction. […]

T2 sequence (P07101 whole entry): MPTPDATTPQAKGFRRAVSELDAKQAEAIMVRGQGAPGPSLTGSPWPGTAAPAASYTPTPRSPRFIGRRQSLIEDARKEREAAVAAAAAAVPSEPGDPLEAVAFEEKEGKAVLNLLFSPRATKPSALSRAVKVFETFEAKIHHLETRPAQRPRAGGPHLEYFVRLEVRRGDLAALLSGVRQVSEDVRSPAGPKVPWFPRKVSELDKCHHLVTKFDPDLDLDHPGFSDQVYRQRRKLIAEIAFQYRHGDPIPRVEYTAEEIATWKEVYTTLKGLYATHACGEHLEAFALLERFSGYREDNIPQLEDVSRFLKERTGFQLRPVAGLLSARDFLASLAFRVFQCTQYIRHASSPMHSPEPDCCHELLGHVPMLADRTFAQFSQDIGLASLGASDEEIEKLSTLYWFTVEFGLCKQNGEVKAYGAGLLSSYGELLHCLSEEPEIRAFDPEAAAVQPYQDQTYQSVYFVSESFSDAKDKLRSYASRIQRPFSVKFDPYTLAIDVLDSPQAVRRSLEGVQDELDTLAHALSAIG
T1 sequence (P08473 whole entry, species assumed): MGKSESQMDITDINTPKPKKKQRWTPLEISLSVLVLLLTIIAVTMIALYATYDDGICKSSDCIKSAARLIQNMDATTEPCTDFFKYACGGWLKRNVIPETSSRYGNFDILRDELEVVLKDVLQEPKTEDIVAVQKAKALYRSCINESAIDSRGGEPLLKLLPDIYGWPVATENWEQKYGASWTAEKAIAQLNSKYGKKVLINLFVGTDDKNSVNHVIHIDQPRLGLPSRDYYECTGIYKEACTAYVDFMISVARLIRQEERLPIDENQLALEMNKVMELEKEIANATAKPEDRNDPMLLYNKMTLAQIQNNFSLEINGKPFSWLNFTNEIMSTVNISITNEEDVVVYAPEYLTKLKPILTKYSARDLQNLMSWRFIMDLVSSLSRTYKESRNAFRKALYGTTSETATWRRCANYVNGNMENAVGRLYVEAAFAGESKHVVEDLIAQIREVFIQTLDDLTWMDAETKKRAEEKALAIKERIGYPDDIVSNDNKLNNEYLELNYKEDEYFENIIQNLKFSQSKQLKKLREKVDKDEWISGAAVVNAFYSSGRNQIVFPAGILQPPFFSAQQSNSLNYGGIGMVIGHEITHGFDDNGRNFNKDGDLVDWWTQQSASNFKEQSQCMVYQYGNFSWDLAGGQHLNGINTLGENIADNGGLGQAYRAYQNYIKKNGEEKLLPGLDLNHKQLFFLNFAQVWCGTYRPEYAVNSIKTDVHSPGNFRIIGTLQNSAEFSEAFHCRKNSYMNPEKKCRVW
T3 sequence (P04035 whole entry, species assumed): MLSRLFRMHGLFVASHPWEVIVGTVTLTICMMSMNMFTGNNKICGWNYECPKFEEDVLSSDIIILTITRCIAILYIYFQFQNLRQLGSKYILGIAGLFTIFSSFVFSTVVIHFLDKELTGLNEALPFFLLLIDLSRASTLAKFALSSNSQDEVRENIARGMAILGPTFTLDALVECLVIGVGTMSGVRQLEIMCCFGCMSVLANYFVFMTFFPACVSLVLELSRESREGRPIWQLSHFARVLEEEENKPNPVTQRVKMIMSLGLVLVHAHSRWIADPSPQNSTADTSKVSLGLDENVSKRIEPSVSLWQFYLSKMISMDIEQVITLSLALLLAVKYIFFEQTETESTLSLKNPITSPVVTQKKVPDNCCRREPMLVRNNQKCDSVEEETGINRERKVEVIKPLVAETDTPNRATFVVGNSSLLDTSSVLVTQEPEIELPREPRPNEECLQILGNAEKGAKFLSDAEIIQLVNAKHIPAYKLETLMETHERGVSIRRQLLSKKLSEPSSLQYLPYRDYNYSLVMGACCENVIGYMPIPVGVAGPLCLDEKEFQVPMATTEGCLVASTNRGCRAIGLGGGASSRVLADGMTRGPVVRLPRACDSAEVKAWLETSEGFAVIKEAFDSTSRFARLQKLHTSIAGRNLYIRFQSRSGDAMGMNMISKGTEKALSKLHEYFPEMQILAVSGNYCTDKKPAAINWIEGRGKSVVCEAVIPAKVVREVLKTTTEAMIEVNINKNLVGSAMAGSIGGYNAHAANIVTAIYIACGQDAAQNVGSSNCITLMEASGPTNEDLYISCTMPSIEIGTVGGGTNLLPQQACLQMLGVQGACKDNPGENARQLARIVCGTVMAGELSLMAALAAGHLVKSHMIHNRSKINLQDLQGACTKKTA
T4 sequence (P23219 24-599): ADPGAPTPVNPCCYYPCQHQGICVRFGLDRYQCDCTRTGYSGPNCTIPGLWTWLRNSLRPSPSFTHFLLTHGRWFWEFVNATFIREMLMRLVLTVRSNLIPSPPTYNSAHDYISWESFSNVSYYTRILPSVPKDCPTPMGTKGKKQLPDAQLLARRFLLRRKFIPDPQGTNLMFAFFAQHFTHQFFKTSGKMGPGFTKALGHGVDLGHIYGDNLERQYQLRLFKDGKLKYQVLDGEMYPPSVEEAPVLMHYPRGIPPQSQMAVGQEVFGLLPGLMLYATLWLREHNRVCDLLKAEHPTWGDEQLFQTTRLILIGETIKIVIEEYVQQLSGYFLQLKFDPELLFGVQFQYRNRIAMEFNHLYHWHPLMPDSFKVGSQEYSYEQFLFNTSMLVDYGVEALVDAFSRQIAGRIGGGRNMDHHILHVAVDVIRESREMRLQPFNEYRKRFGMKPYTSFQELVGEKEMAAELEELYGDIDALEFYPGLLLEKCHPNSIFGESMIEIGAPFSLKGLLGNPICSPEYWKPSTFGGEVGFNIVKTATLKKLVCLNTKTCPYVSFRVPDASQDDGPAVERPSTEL

Take `Cl.NCc1c[nH]c(=S)n1[C@H]1CCc2c(F)cc(F)cc2C1` [nepicastat, (S)-5-Aminomethyl-1-(5,7-difluoro-1,2,3,4-tetrahydronaphth-2-yl)-2,3-dihydro-2-thioxo-1H-imidazole hydrochloride]: the “dose with significant increase in dopamine/norepinephrine ratio, left ventricle” value in [1] worked out at 1.0 mg/kg. The “dose with significant increase in dopamine/norepinephrine ratio, mesenteric artery” value in data set [1] came to 3.0 mg/kg. In addition, in data set [1] (only at this dose), the “dose with significant increase in dopamine/norepinephrine ratio, cerebral cortex” value came out at 100 mg/kg. In addition, the IC50 at neutral endopeptidase, on nitric oxide synthase, at protein kinase C, on tyrosine hydroxylase, against HMG-CoA reductase and against acetyl CoA synthetase was over 10 µM each time. The IC50 (in [2]; in data set [3]; against cyclooxygenase-I) was over 10 µM each time. The cardiovascular effects result in data set [4] is “no cardiovascular effects”. Further, in data set [5] (10 mg/kg/d for 4.5 days), the “heart rate response to i.v. tyramine challenge” value is recorded as “significantly reduced the increase in heart rate”. Further, the “inhibition of responses to renal nerve stimulation and carotid artery occlusion” value in data set [5] (30 mg/kg intraduodenally, up to 5 hours) is on record as “did not significantly inhibit”. Moreover, the acute toxicity entry with mice was “Clinical signs of toxicity and death occurred at 1000 and 2500 mg/kg”. For the same compound, in [6] (10 mg/kg oral), the “mean arterial pressure vs vehicle” value is listed as “significant decrease (p<0.05) in mean arterial pressure by 30 min post dose”. The “heart rate vs vehicle” value in [6] (SCH-23390 200 μg/kg iv, nepicastat 10 mg/kg po) was “did not decrease the heart rate as much as observed in vehicle treated animals”. In [6] (nepicastat 10 mg/kg po, SCH-23390 iv, hydrochloride), the “antihypertensive effects of nepicastat after pretreatment with SCH-23390” value was “not attenuated; also recorded: did not significantly attenuate”.

A word on the IC50: it is the concentration that gives 50% inhibition. Read a high IC50 as a need for much substance.
